Active and inactive are the calls of the source.
Key:
[1] = Luminescent dose response cell-based high throughput screening assay for inhibitors of the Janus kinase 2 mutant JAK2V617F. [Related pubchem assays: 1446 (Primary screen.), 1521 (Confirmation assay.), 1486 (Counter screen.)]; type: functional
[2] = Luminescence Cell-Based Dose Confirmation HTS to Identify Inhibitors of Polyadenylation.; type: functional
[3] = Luminescence Cell-Based Dose Response HTS to Identify Inhibitors of 5'UTR Stem-Loop Driven Prion Protein mRNA Translation in H4 Neuroglioblastoma Cells. [Related pubchem assays: 1827 (Project Summary), 1813 (Primary HTS)]; type: functional
[4] = Shn3 3'UTR reporter inhibitors, dose response, cell-based, Clone20 osteoblasts, firefly luciferase, cherry-picked (AID 624132); type: functional;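 also: firefly luciferase luminescence from reporter carrying the Shn3 3'UTR in osteoblasts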
[5] = control 3'UTR Renilla luciferase suppression, dose response, counter-screen for Shn3 inhibitor project, cell-based, Clone20-Shn3RL, cherry-picked (AID 624133); type: functional
[6] = microbe, parasite or virus in culture; type: functional; details: Mycobacterium tuberculosis
[7] = inhibitors of SNCA 5'UTR-driven reporter translation, confirmation, H4 neuroglioma cells, luminescence (AID 1988); type: functional, cell-based
[8] = NIH-3T3 fibroblast cytotoxicity, dose response, cytotoxicity control, cell-based, fluorescence, Alamar Blue, secondary assay (AID 2327); type: functional;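 also: NIH-3T3 mouse fibroblasts cultured with fluconazole at 8 µg/mL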
[9] = system: Jurkat; assay: antigen receptor-induced NF-kB inhibitors, dose response, Jurkat, luciferase reporter, luminescence, B- and T-cell (AID 489004); type: functional, cell-based; details: Homo sapiens;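 also: NF-kB luciferase reporter Jurkat cells stimulated with PMA plus ionomycin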
[10] = target: Cyclin-dependent kinase 5/CDK5 activator 1 (Homo sapiens, UniProt Q00535); assay: CDK5/p35 kinase inhibitors, dose response, biochemical, cherry-picked samples, set 2 (AID 504545)
Chain of Cyclin-dependent kinase 5/CDK5 activator 1 (Q00535 whole entry): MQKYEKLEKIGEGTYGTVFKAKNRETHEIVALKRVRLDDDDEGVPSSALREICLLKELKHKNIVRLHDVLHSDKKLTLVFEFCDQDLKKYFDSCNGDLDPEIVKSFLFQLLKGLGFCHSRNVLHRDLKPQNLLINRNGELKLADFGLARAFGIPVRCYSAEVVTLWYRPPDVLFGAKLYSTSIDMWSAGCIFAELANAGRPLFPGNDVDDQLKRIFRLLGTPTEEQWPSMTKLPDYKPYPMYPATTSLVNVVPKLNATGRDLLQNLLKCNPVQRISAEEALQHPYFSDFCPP
Chain of Cyclin-dependent kinase 5/CDK5 activator 1 (Q15078 whole entry, further chain): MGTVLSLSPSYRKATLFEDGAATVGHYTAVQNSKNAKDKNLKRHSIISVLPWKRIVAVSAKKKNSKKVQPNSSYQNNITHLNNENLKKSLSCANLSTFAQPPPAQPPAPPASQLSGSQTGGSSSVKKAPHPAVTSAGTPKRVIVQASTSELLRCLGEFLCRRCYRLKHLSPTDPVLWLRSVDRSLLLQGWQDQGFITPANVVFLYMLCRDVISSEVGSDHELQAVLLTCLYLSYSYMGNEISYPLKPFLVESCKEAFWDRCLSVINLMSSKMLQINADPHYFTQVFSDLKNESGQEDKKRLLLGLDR

[11] = target: Dual specificity tyrosine-phosphorylation-regulated kinase 1A (Rattus norvegicus, UniProt Q63470); type: biochemical, Homo sapiens
[12] = system: Vero; assay: cells; type: functional, cell-based; details: Chlorocebus sabaeus
[13] = cells; type: functional, cell-based
[14] = system: Vero; assay: host cell cytotoxicity of antiviral hits, dose response, cytotoxicity control for West Nile virus antiviral project, secondary assay (AID 1650); type: functional; details: Chlorocebus sabaeus
[15] = inhibitors of SNCA 5'UTR-driven translation, confirmation, luminescence, H4 neuroglioblastoma cells, dose confirmation (AID 2454); type: functional, cell-based;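 also: H4 neuroglioblastoma cells carrying an alpha-synuclein 5'UTR luciferase reporter; potency for inhibition of the luciferase signal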
[16] = cytotoxicity in HEK-293T NF-kB-Luc cells, dose response, cytotoxicity control for B/T-cell NF-kB inhibitor project, cell-based, uHTS hits (AID 489019); type: functional;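 also: IC50 reflects cytotoxicity as loss of cell viability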
[17] = luciferase reporter signal reduction – luminescence, H4-C neuroglioblastoma cells, dose response (AID 2458); type: functional, cell-based;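 also: H4 neuroglioblastoma cells stably carrying a luciferase reporter gene fusion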
[18] = C. albicans growth with fluconazole, confirmation, fluorescence, retest (AID 2467); type: functional, cell-based
[19] = cytotoxicity toward NIH3T3 fibroblasts, dose response, counter-screen, cell-based, ATP luminescence, mouse fibroblasts (AID 2010); type: functional;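 also: cells exposed to compound for about 90 hours before reading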
[20] = Luminescence Cell-Based Dose Confirmation HTS to Identify Activators of 5'UTR Stem-Loop Driven Alpha-Synuclein mRNA Translation in H4 Neuroglioblastoma Cells. [Related pubchem assays: 1829 (Project Summary), 1814 (Primary HTS)]; type: functional
[21] = target: T1, Caspase-3 (Homo sapiens, UniProt P42574); assay: Dose-response confirmation of uHTS inhibitor hits of Sentrin-Specific Protease 8 in a Caspase-3 Fluorescence assay.; type: functional
T1 sequence (P42574 whole entry): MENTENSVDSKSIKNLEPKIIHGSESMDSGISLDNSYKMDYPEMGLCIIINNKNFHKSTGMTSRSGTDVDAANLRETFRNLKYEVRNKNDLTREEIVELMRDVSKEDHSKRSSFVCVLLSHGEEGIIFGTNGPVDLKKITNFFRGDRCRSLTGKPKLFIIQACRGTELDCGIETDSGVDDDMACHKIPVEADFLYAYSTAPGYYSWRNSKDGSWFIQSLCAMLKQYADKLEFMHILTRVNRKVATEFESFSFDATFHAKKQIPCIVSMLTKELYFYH

[22] = target: T2, Sentrin-specific protease 8 (Homo sapiens, UniProt Q96LD8); type: functional
T2 sequence (Q96LD8 whole entry): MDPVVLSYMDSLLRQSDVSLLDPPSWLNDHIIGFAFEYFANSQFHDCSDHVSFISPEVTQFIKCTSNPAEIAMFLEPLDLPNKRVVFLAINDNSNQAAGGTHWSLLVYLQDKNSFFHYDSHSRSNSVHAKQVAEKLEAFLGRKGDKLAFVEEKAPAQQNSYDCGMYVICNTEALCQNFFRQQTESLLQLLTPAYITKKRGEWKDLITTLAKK

[23] = inhibitors of intracellular T. cruzi replication, confirmation, NIH3T3 host cells, beta-gal luminescence (AID 2044); type: functional, cell-based;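 also: intracellular parasites grown in NIH/3T3 mouse fibroblasts as host cells; luminescent beta-galactosidase reporter signal from transgenic T. cruzi replicating inside host cells; inhibitors lower the luminescence signal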
[24] = Luminescence Cell-Based Dose Response HTS to Identify Activators of Luciferase Translation or Activity in H4 […] Cells. [Related pubchem assays: 1829 (Project Summary), 1814 (Primary HTS)]; type: functional
[25] = target: Photoreceptor-specific nuclear receptor (Homo sapiens, UniProt Q9Y5X4); assay: NR2E3 inverse agonists, dose response, biochemical, TR-FRET (AID 463256); type: functional
Chain of Photoreceptor-specific nuclear receptor (Q9Y5X4 whole entry): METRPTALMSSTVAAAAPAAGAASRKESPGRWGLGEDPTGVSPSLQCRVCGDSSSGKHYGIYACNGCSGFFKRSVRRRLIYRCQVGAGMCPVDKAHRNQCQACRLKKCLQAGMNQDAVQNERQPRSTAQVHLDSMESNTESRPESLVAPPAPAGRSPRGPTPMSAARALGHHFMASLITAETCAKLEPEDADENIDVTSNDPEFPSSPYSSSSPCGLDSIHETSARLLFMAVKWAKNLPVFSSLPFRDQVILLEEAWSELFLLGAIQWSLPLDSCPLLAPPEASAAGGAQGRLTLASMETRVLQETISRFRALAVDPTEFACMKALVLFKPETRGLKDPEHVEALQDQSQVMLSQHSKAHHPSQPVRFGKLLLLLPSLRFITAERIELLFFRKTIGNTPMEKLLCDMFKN

[26] = target: T3, Replicative DNA helicase DnaB (Mycobacterium tuberculosis, UniProt P9WMR3); assay: DnaB intein splicing inhibitors, dose response, biochemical, cell-free fluorescence (AID 449749); type: functional
T3 sequence (P9WMR3 whole entry): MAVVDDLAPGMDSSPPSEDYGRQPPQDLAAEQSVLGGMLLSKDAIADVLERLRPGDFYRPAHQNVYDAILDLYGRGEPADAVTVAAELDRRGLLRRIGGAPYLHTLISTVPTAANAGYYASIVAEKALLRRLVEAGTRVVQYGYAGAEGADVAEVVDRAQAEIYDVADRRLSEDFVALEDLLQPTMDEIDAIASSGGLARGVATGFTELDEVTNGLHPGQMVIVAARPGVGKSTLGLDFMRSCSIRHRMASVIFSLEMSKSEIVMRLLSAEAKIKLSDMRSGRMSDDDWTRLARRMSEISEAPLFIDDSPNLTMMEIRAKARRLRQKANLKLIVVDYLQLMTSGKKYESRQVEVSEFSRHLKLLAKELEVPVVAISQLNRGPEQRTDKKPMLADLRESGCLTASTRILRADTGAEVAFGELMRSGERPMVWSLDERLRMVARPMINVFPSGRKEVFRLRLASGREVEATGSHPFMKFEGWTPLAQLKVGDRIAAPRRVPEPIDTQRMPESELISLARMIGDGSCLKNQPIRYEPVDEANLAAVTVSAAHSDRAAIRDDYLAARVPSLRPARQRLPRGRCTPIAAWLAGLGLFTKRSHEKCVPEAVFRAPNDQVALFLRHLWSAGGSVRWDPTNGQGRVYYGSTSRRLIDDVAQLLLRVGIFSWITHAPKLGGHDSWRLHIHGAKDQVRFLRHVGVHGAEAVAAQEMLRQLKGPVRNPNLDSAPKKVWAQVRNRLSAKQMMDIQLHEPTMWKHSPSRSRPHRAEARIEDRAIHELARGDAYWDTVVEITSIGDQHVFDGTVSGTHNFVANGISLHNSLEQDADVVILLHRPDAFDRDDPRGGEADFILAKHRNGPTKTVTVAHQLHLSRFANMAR

[27] = target: T2, Sentrin-specific protease 8; type: functional; remark: listed apart in the source
[28] = target: Peroxisome proliferator-activated receptor gamma/Nuclear receptor corepressor 2 (Homo sapiens, UniProt P37231+Q9Y618); assay: Counterscreen for NR2E3 inverse agonists: TR-FRET-based biochemical high throughput dose response assay to identify inverse agonists of the interaction between peroxisome proliferator-activated receptor gamma (PPARg) and nuclear receptor co-repressor 2 (NCOR2).; type: functional
Chain of Peroxisome proliferator-activated receptor gamma/Nuclear receptor corepressor 2 (P37231 whole entry): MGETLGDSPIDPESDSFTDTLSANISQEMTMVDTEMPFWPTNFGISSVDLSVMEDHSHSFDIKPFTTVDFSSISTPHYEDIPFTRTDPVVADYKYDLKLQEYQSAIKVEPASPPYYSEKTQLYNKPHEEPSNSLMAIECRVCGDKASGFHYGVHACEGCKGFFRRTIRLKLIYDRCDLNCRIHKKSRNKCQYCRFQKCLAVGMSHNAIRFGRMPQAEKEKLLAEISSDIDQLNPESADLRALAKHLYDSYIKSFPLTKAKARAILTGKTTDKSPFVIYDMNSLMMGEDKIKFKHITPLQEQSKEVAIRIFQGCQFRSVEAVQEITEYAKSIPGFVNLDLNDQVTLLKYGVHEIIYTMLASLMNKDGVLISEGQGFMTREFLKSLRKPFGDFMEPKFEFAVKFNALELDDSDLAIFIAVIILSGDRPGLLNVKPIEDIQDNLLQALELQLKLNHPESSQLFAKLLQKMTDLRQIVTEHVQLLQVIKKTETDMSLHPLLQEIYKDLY
Chain of Peroxisome proliferator-activated receptor gamma/Nuclear receptor corepressor 2 (Q9Y618 whole entry): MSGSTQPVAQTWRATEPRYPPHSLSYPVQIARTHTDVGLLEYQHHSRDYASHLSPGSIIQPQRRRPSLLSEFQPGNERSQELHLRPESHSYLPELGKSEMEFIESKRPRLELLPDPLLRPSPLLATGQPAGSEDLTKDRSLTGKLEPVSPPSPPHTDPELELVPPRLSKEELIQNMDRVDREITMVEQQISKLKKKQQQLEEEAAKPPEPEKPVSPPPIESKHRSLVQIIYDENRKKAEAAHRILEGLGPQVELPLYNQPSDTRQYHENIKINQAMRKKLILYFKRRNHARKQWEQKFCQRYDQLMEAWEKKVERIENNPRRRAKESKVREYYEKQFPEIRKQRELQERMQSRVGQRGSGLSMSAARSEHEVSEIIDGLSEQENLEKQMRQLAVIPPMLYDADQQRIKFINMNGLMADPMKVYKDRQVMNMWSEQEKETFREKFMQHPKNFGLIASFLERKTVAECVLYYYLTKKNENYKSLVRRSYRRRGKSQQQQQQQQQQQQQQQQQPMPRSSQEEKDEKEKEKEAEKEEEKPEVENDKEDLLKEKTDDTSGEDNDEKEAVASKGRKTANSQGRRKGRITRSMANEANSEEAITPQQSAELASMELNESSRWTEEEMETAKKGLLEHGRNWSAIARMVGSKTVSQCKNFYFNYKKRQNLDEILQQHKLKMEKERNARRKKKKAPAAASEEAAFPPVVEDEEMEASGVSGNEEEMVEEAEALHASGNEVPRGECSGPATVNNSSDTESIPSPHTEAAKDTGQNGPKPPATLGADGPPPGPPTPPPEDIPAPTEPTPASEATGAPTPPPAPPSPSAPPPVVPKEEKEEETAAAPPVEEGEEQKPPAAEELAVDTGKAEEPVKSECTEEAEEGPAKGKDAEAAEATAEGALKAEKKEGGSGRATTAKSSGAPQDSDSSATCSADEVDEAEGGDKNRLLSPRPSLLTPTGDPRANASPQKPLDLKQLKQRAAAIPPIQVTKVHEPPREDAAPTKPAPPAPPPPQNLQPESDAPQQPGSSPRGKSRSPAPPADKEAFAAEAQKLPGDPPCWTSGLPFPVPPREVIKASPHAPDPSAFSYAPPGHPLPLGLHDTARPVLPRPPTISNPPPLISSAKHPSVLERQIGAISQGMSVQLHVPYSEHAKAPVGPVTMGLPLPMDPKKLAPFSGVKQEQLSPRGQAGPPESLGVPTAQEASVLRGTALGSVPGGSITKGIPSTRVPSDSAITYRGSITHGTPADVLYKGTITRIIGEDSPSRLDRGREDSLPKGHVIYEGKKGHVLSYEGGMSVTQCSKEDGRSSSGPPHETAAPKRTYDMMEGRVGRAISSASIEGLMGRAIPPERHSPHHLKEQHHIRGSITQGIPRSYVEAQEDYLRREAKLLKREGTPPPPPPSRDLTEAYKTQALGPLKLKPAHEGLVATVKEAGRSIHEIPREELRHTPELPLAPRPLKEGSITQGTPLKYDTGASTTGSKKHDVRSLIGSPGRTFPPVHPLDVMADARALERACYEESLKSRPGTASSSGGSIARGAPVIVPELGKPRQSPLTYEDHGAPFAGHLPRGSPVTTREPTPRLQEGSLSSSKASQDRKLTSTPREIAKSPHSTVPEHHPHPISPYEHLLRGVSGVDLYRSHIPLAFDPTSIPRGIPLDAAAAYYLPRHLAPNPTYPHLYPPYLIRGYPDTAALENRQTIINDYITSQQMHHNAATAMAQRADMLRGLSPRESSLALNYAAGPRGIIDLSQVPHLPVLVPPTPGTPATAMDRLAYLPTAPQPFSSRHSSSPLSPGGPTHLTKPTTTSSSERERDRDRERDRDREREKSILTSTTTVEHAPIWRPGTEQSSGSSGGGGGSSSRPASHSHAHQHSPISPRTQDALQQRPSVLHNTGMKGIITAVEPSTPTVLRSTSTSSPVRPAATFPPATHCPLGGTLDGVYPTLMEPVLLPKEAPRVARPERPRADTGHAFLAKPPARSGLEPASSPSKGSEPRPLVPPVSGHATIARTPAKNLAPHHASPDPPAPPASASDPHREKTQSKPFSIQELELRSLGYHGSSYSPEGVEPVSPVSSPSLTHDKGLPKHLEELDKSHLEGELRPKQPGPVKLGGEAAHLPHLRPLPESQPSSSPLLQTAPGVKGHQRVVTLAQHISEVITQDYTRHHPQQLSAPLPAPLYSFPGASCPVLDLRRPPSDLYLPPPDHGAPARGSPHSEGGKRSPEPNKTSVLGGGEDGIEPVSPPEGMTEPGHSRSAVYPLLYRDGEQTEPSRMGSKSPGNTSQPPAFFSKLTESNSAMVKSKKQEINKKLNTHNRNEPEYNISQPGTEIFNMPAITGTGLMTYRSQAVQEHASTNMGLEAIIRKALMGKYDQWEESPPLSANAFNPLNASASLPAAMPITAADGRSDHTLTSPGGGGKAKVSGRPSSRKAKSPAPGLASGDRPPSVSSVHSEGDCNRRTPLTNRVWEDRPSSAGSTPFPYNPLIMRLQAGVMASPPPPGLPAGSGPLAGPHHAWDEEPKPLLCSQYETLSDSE

[29] = target: T4, Protein RecA (Mycobacterium tuberculosis, UniProt P9WHJ3); assay: Fluorescence Cell-Free Homogeneous Dose Retest to Identify Inhibitors of RecA-Intein Splicing Activity. [Related pubchem assays (depositor defined):AID2097, AID2223, AID489010, AID492950]; type: functional
T4 sequence (P9WHJ3 whole entry): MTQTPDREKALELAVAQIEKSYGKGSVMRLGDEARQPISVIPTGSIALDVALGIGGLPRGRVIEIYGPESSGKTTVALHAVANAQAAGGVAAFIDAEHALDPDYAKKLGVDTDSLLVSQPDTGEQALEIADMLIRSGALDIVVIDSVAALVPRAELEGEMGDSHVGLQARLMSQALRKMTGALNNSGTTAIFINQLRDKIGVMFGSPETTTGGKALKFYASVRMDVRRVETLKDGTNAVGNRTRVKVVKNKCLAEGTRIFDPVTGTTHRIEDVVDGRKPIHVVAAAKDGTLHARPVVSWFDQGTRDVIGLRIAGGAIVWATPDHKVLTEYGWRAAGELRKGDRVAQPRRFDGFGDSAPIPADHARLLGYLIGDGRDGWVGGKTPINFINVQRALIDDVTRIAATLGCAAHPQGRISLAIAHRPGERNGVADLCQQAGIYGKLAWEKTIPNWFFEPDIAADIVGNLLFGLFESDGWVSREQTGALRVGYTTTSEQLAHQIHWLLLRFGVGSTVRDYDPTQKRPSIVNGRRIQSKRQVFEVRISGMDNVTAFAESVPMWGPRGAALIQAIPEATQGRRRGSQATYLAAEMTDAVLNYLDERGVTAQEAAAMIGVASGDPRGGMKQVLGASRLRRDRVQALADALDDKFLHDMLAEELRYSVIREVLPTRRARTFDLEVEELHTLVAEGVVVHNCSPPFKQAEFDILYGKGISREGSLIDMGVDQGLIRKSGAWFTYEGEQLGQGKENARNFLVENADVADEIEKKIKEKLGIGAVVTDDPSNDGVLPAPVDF

[30] = system: H4; assay: Luminescence Cell-Based Dose Response HTS to Identify Activators of 5'UTR Stem-Loop Driven Prion Protein mRNA Translation in H4 Neuroglioblastoma Cells. [Related pubchem assays: 1829 (Project Summary), 1814 (Primary HTS)]; type: functional; details: Homo sapiens
[31] = target: Nonstructural protein 1 (Influenza A virus, UniProt Q194T2); type: functional, Influenza A virus (A/California/07/2009(H1N1))
Chain of Nonstructural protein 1 (Q194T2 whole entry): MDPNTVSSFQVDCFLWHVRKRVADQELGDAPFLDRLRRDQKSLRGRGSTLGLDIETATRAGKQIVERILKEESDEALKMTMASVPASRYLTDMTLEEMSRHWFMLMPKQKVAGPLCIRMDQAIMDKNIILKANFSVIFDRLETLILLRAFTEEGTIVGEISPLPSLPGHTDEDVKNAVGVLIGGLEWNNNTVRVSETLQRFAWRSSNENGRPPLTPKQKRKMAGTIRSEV

**Q.** Which IC50 [1] does the source give for `CC(C)(C)OC(=O)N[C@@H](Cc1ccccc1)c1nnc(S(=O)(=O)Cc2cccc(F)c2)o1` here?
**A.** The IC50 was 0.788 µM (active).

**Q.** With `O=C(NCCC1=CCCCC1)c1c(O)nc2ccccn2c1=O` as the molecule, how does the EC50 [2] read?
**A.** Its EC50 is > 120 µM (not active).

**Q.** For `OCCCNc1cc(-c2ccnc(Nc3cccc(Cl)c3)n2)ccn1`, which EC50 [3] is on record?
**A.** Its EC50 is < 0.1 µM (active).

**Q.** What about the AC50 [4] of the same molecule?
**A.** Its AC50 is < 0.26 µM (active).

**Q.** And the AC50 [5]?
**A.** Its AC50 is 0.375 µM (active).

**Q.** What about the CC50 [6] of the same molecule?
**A.** Its CC50 is < 0.08 µM (active).

**Q.** What about the EC50 [7] of the same molecule?
**A.** Its EC50 is < 0.1 µM (active).

**Q.** And the EC50 [8]?
**A.** The EC50 was 0.269 µM (inconclusive).

**Q.** What about the IC50 [9] of the same molecule?
**A.** Its IC50 is < 0.16 µM (active).

**Q.** And the AC50 [10]?
**A.** The AC50 was 0.377 µM (active).

**Q.** What about the AC50 [11] of the same molecule?
**A.** The AC50 was 0.013 µM (active).

**Q.** And the IC50 [12]?
**A.** The IC50 was > 25 µM (active).

**Q.** And the EC50 [13]?
**A.** Its EC50 is 0.076 µM (active).

**Q.** What about the CC50 [14] of the same molecule?
**A.** The CC50 was 0.05 µM (active).

**Q.** And the EC50 [15]?
**A.** Its EC50 is 0.182 µM (active).

**Q.** What about the IC50 [16] of the same molecule?
**A.** The IC50 was 35.3 µM (inactive).

**Q.** What about the EC50 [17] of the same molecule?
**A.** The EC50 was 0.074 µM (active).

**Q.** What about the EC50 [18] of the same molecule?
**A.** Its EC50 is 0.666 µM (active).

**Q.** Which EC50 [19] does the source give for `Cc1ccc(S(=O)(=O)NC(=O)Nc2ccc(N(C)C)cc2)cc1` here?
**A.** The EC50 was > 60 µM (not active).

**Q.** What about the EC50 [20] of the same molecule?
**A.** The EC50 was 7.5 µM (active).

**Q.** What about the IC50 [21] of the same molecule?
**A.** Its IC50 is 18.1 µM (active).

**Q.** And the IC50 [22]?
**A.** The IC50 was 7.83 µM (active).

**Q.** And the EC50 [23]?
**A.** The EC50 was 1.39 µM (active).

**Q.** What about the EC50 [24] of the same molecule?
**A.** Its EC50 is 13 µM (active).

**Q.** What about the IC50 [25] of the same molecule?
**A.** Its IC50 is 0.748 µM (active).

**Q.** And the AC50 [26]?
**A.** Its AC50 is > 380 µM (inactive).

**Q.** What about the IC50 [27] of the same molecule?
**A.** The IC50 was 7.02 µM (active).

**Q.** And the IC50 [28]?
**A.** The IC50 was 0.503 µM (active).

**Q.** What about the EC50 [29] of the same molecule?
**A.** Its EC50 is 5.18 µM (active).

**Q.** And the EC50 [30]?
**A.** The EC50 was 1.97 µM (active).

**Q.** And the IC50 [31]?
**A.** The IC50 was 44.1 µM (active).

— ChEMBL document CHEMBL1201862, “PubChem BioAssay data set” (2004)
